Experimental data from ChEMBL document CHEMBL4507324 (2021).

Tests used:
Details in all cases: Compound concentration 100.0 nM
[1] = molecular target: Serine/threonine-protein kinase ICK (Homo sapiens) (UniProt Q9UPZ9)
[2] = molecular target: Rhodopsin kinase GRK1 (Homo sapiens) (UniProt Q15835)
[3] = molecular target: Tyrosine-protein kinase ITK/TSK (Homo sapiens) (UniProt Q08881)
[4] = molecular target: Tyrosine-protein kinase FRK (Homo sapiens) (UniProt P42685)
[5] = molecular target: Serine/threonine-protein kinase mTOR (Homo sapiens) (UniProt P42345)
[6] = molecular target: Dual specificity protein kinase CLK3 (Homo sapiens) (UniProt P49761)
[7] = molecular target: Mast/stem cell growth factor receptor Kit (Homo sapiens) (UniProt P10721)
[8] = molecular target: Cyclin-dependent kinase 15 (Homo sapiens) (UniProt Q96Q40)
[9] = molecular target: Serine/threonine-protein kinase B-raf (Homo sapiens, UniProt P15056)
[10] = molecular target: Serine/threonine-protein kinase 33 (Homo sapiens) (UniProt Q9BYT3)
[11] = molecular target: RAC-alpha serine/threonine-protein kinase (Homo sapiens) (UniProt P31749)
[12] = molecular target: Death-associated protein kinase 2 (Homo sapiens) (UniProt Q9UIK4)
[13] = molecular target: Ephrin type-B receptor 1 (Homo sapiens) (UniProt P54762)
[14] = tested on: Tyrosine-protein kinase ABL1 (Homo sapiens), P00519 [Q252H]
[15] = molecular target: Serine/threonine-protein kinase PRP4 homolog (Homo sapiens) (UniProt Q13523)
[16] = tested on: Epidermal growth factor receptor (Homo sapiens), P00533 [UNDEFINED MUTATION]
[17] = molecular target: Ribosomal protein S6 kinase alpha-2 (Homo sapiens) (UniProt Q15349)
[18] = molecular target: Mitogen-activated protein kinase kinase kinase 11 (Homo sapiens) (UniProt Q16584)
[19] = molecular target: cGMP-dependent protein kinase 2 (Homo sapiens) (UniProt Q13237)
[20] = molecular target: Serine/threonine-protein kinase PAK 6 (Homo sapiens) (UniProt Q9NQU5)
[21] = molecular target: Serine/threonine-protein kinase VRK2 (Homo sapiens) (UniProt Q86Y07)
[22] = molecular target: Ribosomal protein S6 kinase alpha-3 (Homo sapiens) (UniProt P51812)
[23] = molecular target: cAMP-dependent protein kinase catalytic subunit PRKX (Homo sapiens) (UniProt P51817)
[24] = molecular target: Activin receptor type-1B (Homo sapiens) (UniProt P36896)
[25] = tested on: Tyrosine-protein kinase ABL1 (Homo sapiens), P00519 [T315I]
[26] = molecular target: Serine/threonine-protein kinase OSR1 (Homo sapiens) (UniProt O95747)
[27] = molecular target: Mitotic checkpoint serine/threonine-protein kinase BUB1 (Homo sapiens) (UniProt O43683)
[28] = molecular target: Serine/threonine-protein kinase 10 (Homo sapiens) (UniProt O94804)
[29] = molecular target: Tyrosine-protein kinase ABL2 (Homo sapiens) (UniProt P42684)
[30] = tested on: Phosphatidylinositol 4,5-bisphosphate 3-kinase catalytic subunit alpha isoform (Homo sapiens), P42336 [E545A]
[31] = molecular target: Tyrosine-protein kinase CSK (Homo sapiens) (UniProt P41240)
[32] = molecular target: Tyrosine-protein kinase JAK1 (Homo sapiens) (UniProt P23458)
[33] = molecular target: Serine/threonine-protein kinase 38 (Homo sapiens) (UniProt Q15208)
[34] = molecular target: Glycogen synthase kinase-3 beta (Homo sapiens) (UniProt P49841)
[35] = molecular target: Cyclin-dependent kinase 2 homolog (Plasmodium falciparum (isolate 3D7)) (UniProt P61075)
[36] = molecular target: Serine/threonine-protein kinase WNK3 (Homo sapiens) (UniProt Q9BYP7)
[37] = tested on: Epidermal growth factor receptor (Homo sapiens), P00533 [T790M]
[38] = molecular target: Serine/threonine-protein kinase 17B (Homo sapiens) (UniProt O94768)
[39] = molecular target: 5'-AMP-activated protein kinase catalytic subunit alpha-2 (Homo sapiens) (UniProt P54646)
[40] = molecular target: Membrane-associated tyrosine- and threonine-specific cdc2-inhibitory kinase (Homo sapiens) (UniProt Q99640)
[41] = molecular target: Cyclin-dependent kinase-like 2 (Homo sapiens) (UniProt Q92772)
[42] = molecular target: BDNF/NT-3 growth factors receptor (Homo sapiens) (UniProt Q16620)
[43] = molecular target: Phosphorylase b kinase regulatory subunit alpha, liver isoform (Homo sapiens) (UniProt P46019)
[44] = molecular target: Tyrosine-protein kinase SYK (Homo sapiens) (UniProt P43405)
[45] = molecular target: Serine/threonine-protein kinase PAK 1 (Homo sapiens) (UniProt Q13153)

Sequence of Serine/threonine-protein kinase 17B (Homo sapiens) (O94768 whole entry): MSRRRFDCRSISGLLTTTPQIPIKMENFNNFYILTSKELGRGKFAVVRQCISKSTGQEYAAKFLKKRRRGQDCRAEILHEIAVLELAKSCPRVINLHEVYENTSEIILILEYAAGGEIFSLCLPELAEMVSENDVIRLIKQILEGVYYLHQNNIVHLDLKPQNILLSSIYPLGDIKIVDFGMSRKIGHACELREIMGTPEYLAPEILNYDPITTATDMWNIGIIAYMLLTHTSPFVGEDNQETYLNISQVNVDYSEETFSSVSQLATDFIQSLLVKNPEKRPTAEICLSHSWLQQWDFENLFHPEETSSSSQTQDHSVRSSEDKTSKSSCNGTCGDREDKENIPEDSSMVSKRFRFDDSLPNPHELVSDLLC
Sequence of Tyrosine-protein kinase ABL2 (Homo sapiens) (P42684 whole entry, canonical isoform): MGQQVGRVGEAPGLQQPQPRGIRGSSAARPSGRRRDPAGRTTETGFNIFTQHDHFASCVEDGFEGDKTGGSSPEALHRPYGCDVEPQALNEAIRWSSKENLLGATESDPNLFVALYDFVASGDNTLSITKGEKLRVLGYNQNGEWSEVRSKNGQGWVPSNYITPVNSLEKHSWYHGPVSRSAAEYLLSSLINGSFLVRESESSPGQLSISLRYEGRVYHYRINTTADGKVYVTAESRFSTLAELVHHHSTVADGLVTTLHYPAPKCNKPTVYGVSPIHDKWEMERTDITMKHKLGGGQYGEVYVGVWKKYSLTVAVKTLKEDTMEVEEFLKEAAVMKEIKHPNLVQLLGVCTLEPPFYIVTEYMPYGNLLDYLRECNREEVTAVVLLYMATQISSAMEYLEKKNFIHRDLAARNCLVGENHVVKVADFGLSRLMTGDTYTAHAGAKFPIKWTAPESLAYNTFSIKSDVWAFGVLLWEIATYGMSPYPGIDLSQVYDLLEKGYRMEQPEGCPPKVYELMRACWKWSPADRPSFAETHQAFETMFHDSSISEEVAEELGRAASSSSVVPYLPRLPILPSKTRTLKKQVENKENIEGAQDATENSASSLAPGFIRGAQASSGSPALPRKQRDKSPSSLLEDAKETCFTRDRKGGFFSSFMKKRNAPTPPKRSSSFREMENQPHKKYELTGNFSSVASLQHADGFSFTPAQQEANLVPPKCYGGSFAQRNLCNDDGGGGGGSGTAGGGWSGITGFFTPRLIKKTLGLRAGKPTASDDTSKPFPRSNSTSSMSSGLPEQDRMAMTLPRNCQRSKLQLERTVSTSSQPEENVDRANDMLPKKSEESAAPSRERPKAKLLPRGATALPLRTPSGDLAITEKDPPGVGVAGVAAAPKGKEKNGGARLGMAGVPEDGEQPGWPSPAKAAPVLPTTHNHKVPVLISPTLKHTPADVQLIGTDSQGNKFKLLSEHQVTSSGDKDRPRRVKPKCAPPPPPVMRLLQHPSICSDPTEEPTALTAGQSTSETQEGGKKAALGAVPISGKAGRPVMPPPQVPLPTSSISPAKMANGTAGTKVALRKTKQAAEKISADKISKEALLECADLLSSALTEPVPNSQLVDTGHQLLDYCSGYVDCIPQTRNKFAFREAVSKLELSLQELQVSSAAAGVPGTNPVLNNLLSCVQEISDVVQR
Sequence of Serine/threonine-protein kinase PAK 6 (Homo sapiens) (Q9NQU5 whole entry, looked up): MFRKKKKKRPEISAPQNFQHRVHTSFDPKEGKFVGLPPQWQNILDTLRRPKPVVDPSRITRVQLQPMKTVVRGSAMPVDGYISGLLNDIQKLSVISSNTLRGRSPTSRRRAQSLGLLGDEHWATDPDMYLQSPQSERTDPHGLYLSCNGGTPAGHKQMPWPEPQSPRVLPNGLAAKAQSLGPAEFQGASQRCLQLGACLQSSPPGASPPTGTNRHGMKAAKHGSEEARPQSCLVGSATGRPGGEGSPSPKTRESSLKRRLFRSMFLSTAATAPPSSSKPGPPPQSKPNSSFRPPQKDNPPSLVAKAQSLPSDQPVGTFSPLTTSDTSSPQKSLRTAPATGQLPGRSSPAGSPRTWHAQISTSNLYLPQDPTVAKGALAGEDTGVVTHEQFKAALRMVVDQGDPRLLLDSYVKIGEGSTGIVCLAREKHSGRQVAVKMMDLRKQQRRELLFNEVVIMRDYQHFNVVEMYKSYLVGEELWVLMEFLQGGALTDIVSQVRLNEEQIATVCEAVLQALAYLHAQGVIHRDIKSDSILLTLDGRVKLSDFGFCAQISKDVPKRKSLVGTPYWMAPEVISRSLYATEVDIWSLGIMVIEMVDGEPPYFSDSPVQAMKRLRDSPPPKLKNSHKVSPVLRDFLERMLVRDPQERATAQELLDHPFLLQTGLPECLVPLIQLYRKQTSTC
Sequence of Mitotic checkpoint serine/threonine-protein kinase BUB1 (Homo sapiens) (O43683 whole entry, looked up): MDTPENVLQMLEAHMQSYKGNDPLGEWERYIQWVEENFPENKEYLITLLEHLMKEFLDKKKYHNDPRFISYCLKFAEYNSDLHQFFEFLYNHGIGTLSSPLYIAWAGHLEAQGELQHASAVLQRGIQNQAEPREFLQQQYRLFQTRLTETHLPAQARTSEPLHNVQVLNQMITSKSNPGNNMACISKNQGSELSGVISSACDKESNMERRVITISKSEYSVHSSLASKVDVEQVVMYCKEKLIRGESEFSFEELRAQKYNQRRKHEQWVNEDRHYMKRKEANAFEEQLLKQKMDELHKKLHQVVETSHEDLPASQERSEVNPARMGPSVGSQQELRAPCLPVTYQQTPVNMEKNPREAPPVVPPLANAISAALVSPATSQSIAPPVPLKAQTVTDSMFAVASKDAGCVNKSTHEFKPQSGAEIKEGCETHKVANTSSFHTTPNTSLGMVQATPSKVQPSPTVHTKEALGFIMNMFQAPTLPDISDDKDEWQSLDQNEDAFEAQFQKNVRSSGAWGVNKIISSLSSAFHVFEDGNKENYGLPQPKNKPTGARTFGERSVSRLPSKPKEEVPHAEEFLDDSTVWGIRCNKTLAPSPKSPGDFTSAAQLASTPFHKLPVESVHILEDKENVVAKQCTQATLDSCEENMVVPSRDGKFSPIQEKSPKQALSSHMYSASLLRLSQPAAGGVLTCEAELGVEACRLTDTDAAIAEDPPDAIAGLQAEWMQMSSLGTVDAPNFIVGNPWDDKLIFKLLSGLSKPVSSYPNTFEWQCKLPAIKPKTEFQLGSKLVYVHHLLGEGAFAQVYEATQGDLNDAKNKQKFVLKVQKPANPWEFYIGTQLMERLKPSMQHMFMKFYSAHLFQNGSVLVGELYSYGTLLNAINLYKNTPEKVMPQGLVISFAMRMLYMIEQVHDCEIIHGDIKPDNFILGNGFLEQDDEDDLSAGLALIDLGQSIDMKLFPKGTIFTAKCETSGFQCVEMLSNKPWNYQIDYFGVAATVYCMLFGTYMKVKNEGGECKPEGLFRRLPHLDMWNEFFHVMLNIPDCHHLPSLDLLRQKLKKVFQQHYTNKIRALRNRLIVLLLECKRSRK
Sequence of Tyrosine-protein kinase FRK (Homo sapiens) (P42685 whole entry): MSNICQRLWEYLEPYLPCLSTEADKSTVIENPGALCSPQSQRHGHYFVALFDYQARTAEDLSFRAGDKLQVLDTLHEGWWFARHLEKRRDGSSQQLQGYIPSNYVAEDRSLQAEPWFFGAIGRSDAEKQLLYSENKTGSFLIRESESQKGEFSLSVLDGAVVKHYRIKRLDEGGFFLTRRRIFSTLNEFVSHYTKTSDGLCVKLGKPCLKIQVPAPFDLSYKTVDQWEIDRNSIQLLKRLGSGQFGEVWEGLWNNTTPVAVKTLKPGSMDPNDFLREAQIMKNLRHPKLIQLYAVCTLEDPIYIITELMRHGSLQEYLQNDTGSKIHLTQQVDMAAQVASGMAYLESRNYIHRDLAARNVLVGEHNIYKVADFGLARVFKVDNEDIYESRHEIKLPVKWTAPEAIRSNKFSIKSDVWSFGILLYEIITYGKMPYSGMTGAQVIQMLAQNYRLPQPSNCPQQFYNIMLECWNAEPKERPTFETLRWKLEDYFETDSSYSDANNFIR
Sequence of Tyrosine-protein kinase ITK/TSK (Homo sapiens) (Q08881 whole entry): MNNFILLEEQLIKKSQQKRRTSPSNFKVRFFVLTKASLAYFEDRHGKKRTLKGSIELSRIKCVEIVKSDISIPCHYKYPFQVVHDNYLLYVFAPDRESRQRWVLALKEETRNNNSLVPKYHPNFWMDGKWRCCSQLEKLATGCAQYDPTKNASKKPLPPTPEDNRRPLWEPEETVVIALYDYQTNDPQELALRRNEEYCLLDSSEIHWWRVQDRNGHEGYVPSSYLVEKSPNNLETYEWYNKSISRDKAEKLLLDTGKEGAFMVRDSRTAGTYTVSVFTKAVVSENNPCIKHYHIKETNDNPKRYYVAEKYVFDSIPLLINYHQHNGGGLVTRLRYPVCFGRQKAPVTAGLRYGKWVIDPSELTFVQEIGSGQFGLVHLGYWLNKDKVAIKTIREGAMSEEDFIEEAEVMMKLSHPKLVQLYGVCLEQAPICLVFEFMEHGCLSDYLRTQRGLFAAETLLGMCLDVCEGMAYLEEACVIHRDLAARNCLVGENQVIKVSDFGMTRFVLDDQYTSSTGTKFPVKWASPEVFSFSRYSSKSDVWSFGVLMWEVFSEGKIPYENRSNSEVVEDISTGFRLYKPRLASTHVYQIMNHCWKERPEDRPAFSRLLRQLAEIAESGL
Sequence of Cyclin-dependent kinase 2 homolog (Plasmodium falciparum (isolate 3D7)) (P61075 whole entry): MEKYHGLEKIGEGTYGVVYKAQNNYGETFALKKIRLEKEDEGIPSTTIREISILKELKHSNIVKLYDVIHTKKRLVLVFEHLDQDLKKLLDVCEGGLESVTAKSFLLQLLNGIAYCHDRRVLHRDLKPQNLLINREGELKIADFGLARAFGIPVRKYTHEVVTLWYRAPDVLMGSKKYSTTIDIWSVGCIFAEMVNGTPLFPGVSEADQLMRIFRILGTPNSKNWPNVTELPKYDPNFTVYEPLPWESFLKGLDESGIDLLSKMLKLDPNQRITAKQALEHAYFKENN

In the case of `CS(=O)(=O)N1CCCC(NC(=O)[C@H](CCC2CCCCC2)NC(=O)c2ccc(CNc3ncnc4c3nnn4-c3ccccc3)cc2)C1` (stereo not given in full) [SR-301], the residual activity [1] is reported as 100%, the residual activity [2] is reported as 94% and the residual activity [3] is reported as 100%. For the same compound, the residual activity [4] was 60%, the residual activity [5] was 100% and the residual activity [6] was 85%. The residual activity [7] was 89%, the residual activity [8] was 74% and the residual activity [9] was 81%. The residual activity [10] was 84%, the residual activity [11] was 100% and the residual activity [12] was 90%. For the same compound, the residual activity [13] was 100%, the residual activity [14] was 95% and the residual activity [15] was 60%. For the same compound, the residual activity [16] was 100%, the residual activity [17] was 100% and the residual activity [18] was 92%. It also gave a residual activity [19] of 79%, a residual activity [20] of 100% and a residual activity [21] of 91%. For the same compound, the residual activity [22] was 100%, the residual activity [23] was 100% and the residual activity [24] was 94%. The residual activity [25] was 100%, the residual activity [26] was 100% and the residual activity [27] was 100%. It also gave a residual activity [28] of 100%, a residual activity [29] of 100% and a residual activity [30] of 100%. The residual activity [31] was 91%, the residual activity [32] was 100% and the residual activity [33] was 83%. For the same compound, the residual activity [34] was 100%, the residual activity [35] was 100% and the residual activity [36] was 85%. For the same compound, the residual activity [37] was 100%, the residual activity [38] was 100% and the residual activity [39] was 100%. The residual activity [40] was 74%, the residual activity [41] was 100% and the residual activity [42] was 100%. It also gave a residual activity [43] of 100%, a residual activity [44] of 88% and a residual activity [45] of 100%.
Compound `CS(=O)(=O)N1CCCC(NC(=O)[C@H](CCC2CCCCC2)NC(=O)c2ccc(CNC(=O)c3cnc4ccccn34)cc2)C1` (stereo not given in full) [SR-302] has a residual activity [1] of 100%, a residual activity [2] of 100% and a residual activity [3] of 90%. For the same compound, the residual activity [4] was 77%, the residual activity [5] was 100% and the residual activity [6] was 100%. The residual activity [7] was 63%, the residual activity [8] was 95% and the residual activity [9] was 47%. The residual activity [10] was 100%, the residual activity [11] was 100% and the residual activity [12] was 94%. The residual activity [13] was 89%, the residual activity [14] was 88% and the residual activity [15] was 74%. For the same compound, the residual activity [16] was 100%, the residual activity [17] was 80% and the residual activity [18] was 100%. The residual activity [19] was 82%, the residual activity [20] was 100% and the residual activity [21] was 76%. The residual activity [22] was 100%, the residual activity [23] was 65% and the residual activity [24] was 96%. The residual activity [25] was 83%, the residual activity [26] was 94% and the residual activity [27] was 100%. For the same compound, the residual activity [28] was 100%, the residual activity [29] was 56% and the residual activity [30] was 99%. It also gave a residual activity [31] of 100%, a residual activity [32] of 64% and a residual activity [33] of 81%. It also gave a residual activity [34] of 100%, a residual activity [35] of 100% and a residual activity [36] of 85%. The residual activity [37] was 100%, the residual activity [38] was 83% and the residual activity [39] was 79%. It also gave a residual activity [40] of 100%, a residual activity [41] of 85% and a residual activity [42] of 87%. It also gave a residual activity [43] of 100%, a residual activity [44] of 93% and a residual activity [45] of 82%.
